We go through two substances from patent US12258377B2 (Scancell Limited, priority 2012, dated 2025).

Where two headings read alike, the source gives them in different places. Square brackets hold non-standard residues; d marks the D form. Ends that are not written are not given here. Cit = NC(=O)NCCC[C@H](N)C(=O)O

Data set [1] concerns splenocytes. Description: Ex vivo elispot assay on splenocytes of immunised HLA-DR1 / HLA-A2/DR1 (HHDII/DR1) transgenic mice. It is filed as in vivo. On the procedure: (§1) C57BL/6 mice (Charles River, UK), HLA-DR4 mice (Taconic, USA), HHDII mice (Pasteur institute, France) and HHDII/DRI mice (Pasteur institute, France) were used, aged between 8 and 12 weeks, and cared for by the staff at Nottingham Trent University. All work was carried out under a Home Office project license. Peptides were dissolved in 10% Dimethylformamide to 1 mg/ml and then emulsified (a series of dilutions) with different adjuvants: CpG and MPLA 6 μg/mouse of each (Invivogen, UK), Incomplete Freund's […] (Sigma, UK), and GMCSF 10 μg/mouse (Peprotech, UK). Peptides (25 μg/mouse) were injected subcutaneously at the base of the tail. DNA (1 μg/mouse) was coated onto 1.0 μm gold particles (BioRad, Hemel Hempstead, UK) using the manufacturer's instructions and administered intradermally by genegun (BioRad). Homspera (10 nM/mouse) (PeptideSynthetics, UK) was injected intradermally with genegun immunisation. Mice were immunized at either day 0 for peptide immunisation or days, 0, 7, and 14 for peptide and genegun immunisation. Spleens were removed for analysis at day 14 for peptide and day 20 for peptide or genegun immunisation unless stated otherwise. 400 μg Anti-CD25 antibody (PC61) was administered i.p. in saline 3 days prior to the immunisation. 200 μg Anti-CTLA-4 antibody (UC 10-4F, 10-11) was administered i.p. in saline at day 7 and 14 with either genegun or peptide immunisation.
(§2) Elispot assays were performed using murine IFNγ, IL-17 and IL-10 capture and detection reagents according to the manufacturer's instructions (Mabtech, Sweden). In brief, anti-IFNγ, IL-17 and IL-10 antibodies were coated onto wells of 96-well Immobilin-P plate. Synthetic peptides (at a variety of concentrations) and 5×10^5 per well splenocytes were added to the wells of the plate in triplicate. Tumour target cells were added where relevant at 5×10^4/well in triplicate and plates incubated for 40 hrs at 37° C. After incubation, captured IFNγ, […], IL-17 and IL-10 were detected by biotinylated anti-IFNγ, IL-17 and IL-10 antibodies and developed with a strepatavidin alkaline phosphatase and chromogenic substrate. Spots were analysed and counted using an automated plate reader (Cellular Technologies Ltd). Functional avidity was calculated as the concentration mediating 50% maximal effector function using a graph of effector function versus peptide concentration.

The subject of data set [2] is splenocytes. Description: Ex vivo elispot assay on splenocytes of immunised HLA-DR4 transgenic mice. In kind it is in vivo. Conditions: for IFNγ elispot response to citrullinated peptide, mean / IFNγ elispot response to wild type peptide, mean: day 14 splenocytes; for EC50: 25 μg peptide day 0, increasing peptide concentration. On the procedure: as §1, §2
Another data set deals with PBMC. The data set is described as follows: Proliferation assay of PBMC from cancer patients. In kind it is cell-based, human. The conditions noted are these: PBMC stimulated with 10 μg/ml peptide for 4, 7 and 11 days, 3H-thymidine. On the procedure: PBMC were isolated from freshly drawn heparinised blood by Ficol-Hypaque (Sigma) gradient centrifugation. PBMC (1.5×10^6 cells/well) were stimulated with single peptides (final concentration 10 μg/ml) in RPMI containing 5% pooled autologous human serum, 2 mM glutamine, 20 mM HEPES and Penicillin-streptomycin (1%) in a final volume of 2 ml. Stimulation with purified protein derivative, PPD (final concentration 10 μg/ml) served as a positive control for the proliferative capacity of PBMC. As a negative control PBMC were incubated with medium alone. The PBMC were cultured at 37° C. in an atmosphere of 5% CO2 for 4, 7 and 11 days. To assess proliferation at these times points 100 μl in triplicate from each culture was aliquoted into a round bottom well of a 96 well plate and ^3H-thymidine added (0.0185 MBq/well) and incubated at 37° C. for a further 8 hours. The cultures were harvested onto unifilter plates and incorporation of ^3H-thymidine was determined by β-scintillation counting. The results were assessed by calculating the stimulation index (SI) as the ratio of the mean of counts per minute (cpm) of epitope-stimulated to the mean of unstimulated cultures. The proliferative assay was considered positive when SI >2.5.

For data set [3], the system named is T2 or B16HHD tumour cells. Description: 51Cr-release assay, vim 65 cit CTL lines against HLA-A2 positive target cells. It is filed as cell-based. Conditions: peptide pulsed HLA-A2 positive target cells. On the procedure: (§3) Target cells were labelled for 1 hr with 1.85 MBq sodium (^51Cr) chromate (Amersham, Essex, UK) with or without 10 μg/ml peptide. Post incubation they were washed 3 times in RPMI. Targets 5×10^3/well of a 96-well V-bottomed plates were set up and co incubated with different densities of effector cells in a final volume of 200 μl of RPMI, 10% FCS (Sigma), 20 mM HEPES buffer, 2 mM L-glutamine, 100 units/ml penicillin and 100 μg/ml streptomycin. After 20 hrs at 37° C., 50 μl of supernatants were removed from each well and transferred to a Lumaplate (Packard, Rigaweg, the Netherlands). Plates were read on a Topcount Microplate Scintillation Counter (Packard). Percentage specific lysis was calculated using the following formula: specific lysis=100×[(experimental release−spontaneous release)/(maximum release−spontaneous release)].

The test system of the next data set is EL4 HHD cells. The data set is described as follows: IFNg elispot of splenocytes against EL4 HHD tumour target cells. In kind it is cell-based, HLA-A2/DR1 transgenic mice. Conditions: EL4 HHD over HLA mismatched B16 cells. On the procedure:
as §2

Data set [4] concerns splenocytes. The data set is described as follows: Ex vivo elispot assay on splenocytes of immunised HLA-DR1 / HLA-A2/DR1 (HHDII/DR1) transgenic mice. It is filed as in vivo. Conditions: stimulation with citrullinated peptide; HLA-A2/DR1 mice.
For a further data set, the system named is Granzyme B. Description: Granzyme B ELISA on supernatant of ex vivo IFNγ elispot. It is filed as cell-based, HLA-DR4 transgenic mice. Conditions: immunised days 0, 7, 14 in CPG and MPLA. The source says: Supernatant from ex vivo IFNγ elispot assays on splenocytes was removed after 40 hrs and assessed for Granzyme B by elisa assay (R&D systems) according to manufacturer's instructions.
Background: An ELISA detects its analyte on a solid surface through an enzyme-linked reagent.

The next data set deals with B16F1-DR4 cells. Description: Tumour challenge with B16F1-DR4 cells. In kind it is in vivo, HLA-DR4 transgenic mice. On the procedure: (§4) For tumour challenge experiments mice were challenged with 2.5×10^4 B16 HHDII NYESO/TAP2 siβ2m 1F10 cells or B16 DR4 2E7 cells subcutaneously on the right flank 3 days prior to primary immunisation and then were immunised as above. Anti-IFNγ antibody (300 μg/dose), anti-IL-17 antibody (200 μg/dose) and anti-HLA-DR antibody (300 μg/dose) were administered i.p. in saline at days 2, 7, 11 and 14 post tumour implant. Anti-CD4 antibody (500 μg/dose) was administered i.p.in saline at days 2 and 8 post tumour implant. Tumour growth was monitored at 3-4 days intervals and mice were humanely euthanized once tumour reached ≥10 mm in diameter.

In a further data set the test system is B16F1 cells. Description: Tumour challenge with B16 tumour lacking HLA-DR0401. It is filed as in vivo, HLA-DR4 transgenic mice. Conditions: B16 tumour lacking expression of HLA-DR0401; 25 μg peptide in CpG and MPLA. On the procedure: as §4
The subject of a further data set is T2 DR4 tumour cells. Description: 51Cr-release assay, CTL lines from immunised mice against T2 DR4 cells. It is filed as cell-based. On the procedure:
as §3

The test system of data set [5] is splenocytes. Description: Ex vivo elispot assay on splenocytes of immunised C57B1 mice. It is filed as in vivo, C57BL/6 mice. The conditions noted are these: C57B1 mice. As to the method: as §1, §2
Another data set concerns the target HLA-DR0401 (Homo sapiens, UniProt P01903+P01911, A100K/A169T/F76Y/I96L/K127E/L162R/M171V/N62H/P40V/Q125Y/R42H/S133A/S149N/S66Y/V115G/V209L/W38E). The data set is described as follows: HLADR0401 competitive binding assay against biotinylated HA306-318. The conditions noted are these: FIG. 12. From the text: In brief, peptides of interest were mixed with a predetermined concentration biotinylated HA306-318 reference peptide at increasing concentrations and added to plate bound HLA DR0401. Amounts of biotinylated reference peptide binding to HLA DR0401 was quantified using streptavidin linked enzyme step followed by detection with chromogenic substrate. Maximal binding is taken as the value achieved by biotinylated HA 306-318 peptide alone. As a positive control unlabelled HA 306-318 peptide was used to compete with the biotinylated version.

The mark [6] stands for this setting: 25 μg citrullinated peptide day 0, day 14, HLA-A2/DR1 mice.
The mark [7] stands for this setting: 25 μg peptide with CpG and MPLA day 0, day 14, peptide 5 μM.
The mark [8] stands for this setting: 25 μg peptide with CpG and MPLA day 0, peptide 5 μM.

On to “SAVRLRSSVPGVR [citrullinated vim 65 peptide] (not fully specified; also: citrullinated, positions not given here)”, for which, in the data set with splenocytes [1] (setting [6]), the “IFNγ elispot response to citrullinated peptide” value is “high frequency IFNγ responses”, the “IFNγ elispot response to wild type peptide” value is given as “some cross reactivity to the wild type peptide” and the “IL-10 elispot response to citrullinated peptide” value is given as “Low frequency IL-10 responses”. In the data set on splenocytes [1] (L243 HLA-DR blocking antibody, HLA-A2/DR1 mice), the “IFNγ response with blockade of MHC class II” value is recorded as “does not eliminate the citrullinated peptide specific response”. In addition, in the data set on splenocytes [2] (setting [7]), the “IL-17 elispot response to citrullinated peptide, mean” value is listed as 550 /million splenocytes and the “IL-17 elispot response to wild type peptide, mean” value is reported as “no responses”. Besides, in the data set with splenocytes [2] (setting [8]), the “IFNγ elispot response to citrullinated peptide, mean” value is given as 550 /million splenocytes and the “IFNγ elispot response to wild type peptide, mean” value is listed as “no responses”. For the same substance, the “patients showing a proliferative response (SI >2.5)” value with PBMC (listed as citrullinated vim 65-77) is given as 4/9. Also, in the data set on PBMC (listed as vim 65 cit), the “patients showing a proliferative response (SI >2.5)” value is recorded as “three of eight”. The “cytotoxicity (chromium release)” value in data set [3] was “cytotoxicity of peptide pulsed HLA-A2 positive target cells”. The “recognition of tumour target cells ex vivo” value in the data set with EL4 HHD cells is “good recognition of transgenic HLA-A2 engineered EL4 cell line (EL4 HHD)”. Also, the “phenotype of cells producing IFNγ and TNFa (intracellular cytokine staining)” value in the data set on splenocytes [4] is listed as “CD8 positive”.
For “citSYVTTSTcitTYSLGSALcitPSTS ([Cit]SYVTTST[Cit]TYSLGSAL[Cit]PSTS) [citrullinated vim 28-49]”, the “response after peptide immunisation” value with splenocytes [1] (HHD1/DR1 mice) is on record as “failed to raise a response”. The EC50 with splenocytes [2] (day 14, IFNγ elispot, read-out: avidity of the IFNγ response (concentration mediating 50% maximal effector function)) amounted to 1000 nM. Besides, in the data set on splenocytes [2] (day 14, IL-17 elispot, read-out: avidity of the IL-17 response (concentration mediating 50% maximal effector function)), the EC50 is 1000 nM. Moreover, in the data set on splenocytes [2] (25 μg peptide s.c., day 14), the “IFNγ/IL-17 response with alum or IFA” value is on record as “no response”; the “IFNγ/IL-17 responses with CpG/MPLA, GMCSF and TMX201 adjuvants” value is recorded as “Potent IFNγ/IL-17 responses”; the “IL-10 responses to the citrullinated peptides with IFA” value is listed as “high frequency IL-10 responses”. Moreover, the IL-10 elispot responses result in the data set on splenocytes [2] (25 μg peptide with CpG and MPLA day 0, day 14, against wild type and citrullinated peptides) is reported as “No significant IL-10 responses”. Further, in the data set on splenocytes [2] (setting [8]), the “IFNγ elispot response to citrullinated peptide, mean” value was 600 /million splenocytes and the “IFNγ elispot response to wild type peptide, mean” value was 250 /million splenocytes. In addition, the “response after depletion of CD4 cells or addition of MHC class II blocking antibody” value with splenocytes [2] (IFNγ elispot, L243 antibody, FIG. 15) is given as “CD4 mediated”. Moreover, the “IFNγ elispot response against vimentin 28-49 triple, double and single citrullinated peptides” value in the data set with splenocytes [2] (peptide immunisation, FIG. 11) was “significantly stronger response”. Moreover, the “Granzyme B release upon stimulation with citrullinated peptides” value in the data set with Granzyme B is given as “release of Granzyme B”. Also, the “patients showing a proliferative response (SI >2.5)” value in the data set with PBMC is 5/11. In the data set on PBMC (listed as vim 28 cit), the “patients showing a proliferative response (SI >2.5)” value is given as “five”. Also, the “anti-tumour response with blockade of IFNγ in vivo” value with B16F1-DR4 cells (IFNγ neutralising monoclonal antibody) is listed as “abrogates”. Further, the “anti-tumour response with blockade of IL-17 in vivo” value with B16F1-DR4 cells (IL-17 neutralising antibody) was “small effect significant influence”. Also, the “anti-tumour response in combination with CD4 T cell depletion (anti-CD4 antibody)” value with B16F1-DR4 cells (clone GK1.5) is listed as “totally abrogates the anti-tumour response”. Besides, the “anti-tumour response / survival” value with B16F1-DR4 cells (peptide 25 μg in CpG and MPLA s.c. or DNA via gene gun, days 4, 11, 18, versus unimmunised control) was “significantly enhanced survival”. Further, the “tumour growth and survival” value with B16F1 cells was “delayed tumour growth and enhanced survival”. The “killing of normal splenocytes” value in the data set on T2 DR4 tumour cells (DR4 splenocytes) is “no killing of normal splenocytes”. Also, in the data set with T2 DR4 tumour cells (targets pulsed with peptide or not), the “killing of T2 tumour cells transfected with human DR4” value is “killed transfected targets whether they were pulsed with the appropriate peptide or not”. In addition, in the data set on splenocytes [5], the “response after peptide immunisation” value is recorded as “failed to raise a response”. Further, the “binding to HLA-DR0401 (competition with HA 306-318 reference peptide)” value in the data set with HLA-DR0401 is on record as “better binding to HLA-DR0401 compared to the wild type version”.
